Test results taken from paper PMC9114433 (Frontiers in Chemistry, 2022).
Several values for one entry are separate records, joined by “and”; a condition that tells them apart may be missing. Identical values can stand only once. Like-named read-outs stand apart in the source and are kept apart here.

How the values were obtained:
hHAO1 [1] = molecular target: T1, hHAO1 (Homo sapiens, UniProt Q9UJM8); test: Amplex Red fluorescence hydrogen peroxide activity assay; type: biochemical; design: A hHAO1 construct, encoding residues Met1-Ser368, with an engineered N-terminal His6-tag; His6 (N); made in house; host or cells: E. coli BL21 (DE3); details: for Km: substrate titration, 30 nM hHAO1; for inhibition mode with respect to glycolate: glycolate 0–500 µM, compound 0–1 mM, best fitting model in GraphPad Prism; for Vmax, Best-fit, 1 mM: Vmax in the presence of 1 mM compound, reaction rate as µM; for LLEAT (Astex lipophilic ligand efficiency score): from hHAO1 IC50; for fold increase in potency: relative to parent fragment scaffold (fragment 1 for 7, 8; fragment 2 for 9–12); for 95% CI α / α (Best-fit): mixed model inhibition fit; for 95% CI α: 95% confidence interval; for α (Best-fit): ratio between αKi (enzyme-substrate complex) and Ki (free enzyme)
T1 sequence (Q9UJM8 1-368): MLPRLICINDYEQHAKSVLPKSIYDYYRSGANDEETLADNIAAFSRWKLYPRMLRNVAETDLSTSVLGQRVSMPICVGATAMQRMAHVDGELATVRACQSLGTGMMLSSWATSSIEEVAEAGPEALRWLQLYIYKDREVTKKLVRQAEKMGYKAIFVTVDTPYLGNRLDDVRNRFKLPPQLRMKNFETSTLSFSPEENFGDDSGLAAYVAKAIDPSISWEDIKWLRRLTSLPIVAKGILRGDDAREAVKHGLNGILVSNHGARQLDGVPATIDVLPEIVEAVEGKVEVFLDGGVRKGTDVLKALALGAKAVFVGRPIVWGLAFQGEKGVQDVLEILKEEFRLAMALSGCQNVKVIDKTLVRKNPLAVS
Method: hHAO1 activity in vitro was determined using the Amplex Red fluorescence hydrogen peroxide assay (Sigma Aldrich). […] The assay buffer contained 50 mM sodium phosphate, pH 7.4, 200 mM KCl, 2 mM MgCl2, and 0.01% TritonX. Determination of suitable assay parameters is described in the Supplementary Material. […] Following 10 min incubation at room temperature, 10 µl/well of Amplex Red reagent was added. […] All reactions were performed in technical triplicates for two different preparations of hHAO1. Reaction rate, defined as total H2O2 produced by the hHAO1 reaction, was determined from the H2O2 standard curve. […] This value is defined as the […] the inhibition constant for the free enzyme (Ki) and the inhibition constant for the enzyme-substrate complex (αKi) and can be related to the initial velocity (V0), substrate concentration ([S]), inhibitor concentration ([I]), and other kinetic parameters (Km, Vmax, Ki) as follows: V0 = Vmax [S]/(Km (1 + [I]/Ki) + [S](1 + [I]/(α∗Ki))). […]
6.2 Establishing parameters for Amplex Red activity assay
HAO1 activity was measured by coupling production of H2O2 by hHAO1 with the H2O2-dependent conversion of Amplex Red to its fluorescent product resorufin by […] peroxidase (Figure S7A).
To determine an incubation period resulting in measurements being made at initial rate conditions that also generated sufficient fluorescence signal, activity of 30 nM hHAO1 in the presence of 30 μM glycolate was measured every 1.5 minutes for a period of 60 minutes ([…]).
To confirm recombinant hHAO1 used in this work was active, the reaction rate of 30 nM hHAO1 was measured across a range of glycolate (Figure S7C) and 2-hydroxypalmitate (Figure S7D) concentrations.
(1 picture or pasted object on this page, not shown here)
Figure S8: Set-up of hHAO1 Amplex Red activity assay. (A) Schematic showing how hHAO1 activity is measured using the Amplex Red assay. (B) Plot of reaction rate (hydrogen peroxide […], µM) of 30 nM hHAO1 over time (minutes) in the presence of 30 µM glycolate. (C) Plot of relative fluorescence versus hydrogen peroxide concentration showing the standard curve fitted within the linear range of the Amplex Red reagent. (D) Michaelis-Menten plot of glycolate concentration versus reaction rate for 30 nM hHAO1. Inset: chemical structure of glycolate. (E) Michaelis-Menten plot of 2-hydroxypalmitate concentration versus reaction rate for 30 nM hHAO1. Inset: chemical structure of 2-hydroxypalmitate.

HAO = tested on: HAO; design: method as in ref Chen et al., 2012; Martin-Higueras, Luis-Lima, and Salido 2016; details: published kinetics against mGO, rat LCHAO, yeast flavocytochrome b2, hHAO1; ref Chen et al., 2012; Martin-Higueras, Luis-Lima, and Salido 2016; cited from earlier work
mGO = tested on: mGO; design: method as in ref Martin-Higueras, Luis-Lima, and Salido 2016; Moya-Garzón et al., 2018; details: purified mGO; ref Martin-Higueras, Luis-Lima, and Salido 2016; Moya-Garzón et al., 2018; cited from earlier work
[2] = tested on: rat LCHAO (equivalent to hHAO2); design: method as in Chen et al., 2012; details: ref Chen et al., 2012; cited from earlier work
[3] = molecular target: flavin dehydrogenase domain of yeast flavocytochrome b2; design: method as in Chen et al., 2012; details: ref Chen et al., 2012; cited from earlier work
hHAO1 [4] = molecular target: T1, hHAO1; details: read-out: Km (substrate), published value; ref Wang et al. 2016; cited from earlier work
[5] = 30 nM hHAO1, 30 µM glycolate, log(inhibitor) vs response fit, read-out: IC50 (Best-fit)
[6] = 30 µM glycolate, 95% confidence interval of fit, read-out: 95% CI IC50
[7] = 95% confidence interval of fit, read-out: 95% CI Ki
[8] = compound 0–1 mM vs glycolate 0–500 µM, read-out: Ki (Best-fit)
[9] = at 1 mM compound, glycolate titration

Row | Structure (SMILES) | inhibition mode with respect to glycolate (hHAO1 [1]) | IC50 (hHAO1 [1]; [5]) | IC50 (hHAO1 [1]; [6]) [µM] | Ki (hHAO1 [1]; [7]) [µM] | Vmax, Best-fit, 1 mM (hHAO1 [1]) [µM] | Ki (hHAO1 [1]; [8]) [µM] | LLEAT (Astex lipophilic ligand efficiency score) (hHAO1 [1]) [kcal/mol] | fold increase in potency (hHAO1 [1]) | further results
1 | CCCCCCCCCCCCCCC(O)C(=O)O (centres unmarked) [2-hydroxypalmitate] | – | – | – | – | – | – | – | – | fold higher Km (hHAO1 [1]; relative to glycolate): 100 fold; Km (hHAO1 [1]; read-out: Km apparent (substrate)): 1200 ± 400 µM
2 | O=C(O)c1nnsc1Sc1ccc(Cl)cc1 [CCPST, 4-carboxy-5-[(4-chlorophenyl)sulfanyl]-1,2,3-thiadiazole] | competitive inhibition mode | – | – | – | – | – | – | – | inhibition mode (HAO): non-competitive inhibition mode; IC50 (mGO): 43 to 198 µM; IC50 [2]: 3.6 µM; IC50 [3]: 6 µM
3 | O=C(NO)c1n[nH]c2ccccc12 [Compound 7] | – | 153 µM | 110 to 215 | 56.7 to 64.2 | 47.76 | 60.4 | 0.40 | 5 fold | –
4 | NCCNC(=O)c1n[nH]c2ccccc12 [Compound 8] | competitive inhibition | 81 µM and 81.3 µM | 57.1 to 117 | 37.7 to 44.3 | 54.60 | 40.9 | 0.47 | 5 fold | –
5 | Nc1c(C(=O)O)[nH]c(=O)[nH]c1=O [Compound 9] | – | 93 µM and 93.3 µM | 48.1 to 193 | 113 to 126 | 56.25 | 119 | 0.71 | more than 10 fold | fold lower potency (hHAO1 [1]; relative to compound 12): 3 fold
6 | Cn1cc(N)c(=O)n(C)c1=O [Compound 10] | – | 60 µM and 59.8 µM | 39.5 to 92 | 157 to 177 | 56.47 | 167 | 0.77 | more than 10 fold | –
7 | Cn1cc(N)c(=O)[nH]c1=O [Compound 11] | – | 40 µM and 39.8 µM | 22.8 to 71.1 | 219 to 248 | 55.85 | 233 | 0.88 | more than 10 fold | –
8 | CC1=NC(=O)NC(=O)C1N (centres unmarked) [Compound 12] | – | 27 µM and 27.4 µM | 19.9 to 38 | 141 to 156 | 54.05 | 148 | 0.89 | more than 10 fold | –
9 | O=C(Nc1cccnc1)N1CCN(c2ccccc2O)CC1 [Compound 13] | mixed model inhibition | 44 µM and 43.8 µM | 27.4 to 71.4 | 59.1 to 82.9 | 27.28 | 69.7 | 0.30 | – | fold increase in Km (hHAO1 [1]; [9]): up to 4 fold; 95% CI α (hHAO1 [1]): 7.84–27.32; α (Best-fit) (hHAO1 [1]): 13.27
10 | Cc1cc(NC(=O)N2CCN(c3cccc(O)c3)CC2)no1 [Compound 14] | mixed model inhibition | 158 µM | 100 to 256 | 83.1 to 119 | 43.12 | 98.9 | 0.25 | – | fold increase in Km (hHAO1 [1]; [9]): up to 4.9 fold; fold reduction in Vmax (hHAO1 [1]; [9]): up to 1.7 fold; 95% CI α (hHAO1 [1]): 9.41–59.28; α (Best-fit) (hHAO1 [1]): 18 and 18.4
11 | Cn1nc(C(N)=O)c2ccccc21 [Fragment 1] | – | 420 µM | – | – | – | – | – | – | –
12 | O=C(C1CC1)N1CCN(c2ccc(F)cc2)CC1 [Fragment 3] | – | – | – | – | – | – | – | – | inhibition at 1000 µM (hHAO1 [1]; 1 mM fragment): 2%; inhibition at 10000 µM (hHAO1 [1]; 10 mM fragment): 19%
13 | O=C(O)CO [glycolate] | – | – | – | – | – | – | – | – | Km (hHAO1 [1]; read-out: Km (substrate)): 18.9 ± 0.8 µM; Km (hHAO1 [4]): 74.5 µM
